{
  "source": "paper PMC9368981",
  "about": "“The γ-Core Motif Peptides of AMPs from Grasses Display Inhibitory Activity against Human and Plant Pathogens” (International Journal of Molecular Sciences, 2022)",
  "key": {"[1]": {"test_system": "Clavibacter michiganensis subsp. michiganensis VKM Ac-1403", "test": "Growth inhibition of Cl. michiganensis in microtiter plates", "type": "cell-based", "conditions": "inhibition curves (Figure 4); for Inhibition of Cl. michiganensis at the highest tested concentration: highest tested concentration of 300 µM", "method": "(§1) The antimicrobial activity of synthetic peptides was tested against a panel of human and plant pathogens. Among them were the yeasts Candida albicans VKM Y-2994 and Cryptococcus neoformans VKM Y-2755, the plant pathogenic bacteria Clavibacter michiganensis subsp. michiganensis VKM Ac-1403, Pseudomonas savastanoi pv. savastanoi VKM B-1546 and Pectobacterium carotovorum subsp. carotovorum VKM B-1247, and four Fusarium species (F. oxysporum VKM F-137, F. culmorum VKM F-2303, F. solani VKM F-142 and F. verticillioides VKM F-670), which cause diseases in plants and humans. The antimicrobial activity was first measured at the peptide concentration of 300 µM (Figure 3).\nThe antimicrobial activity of synthetic peptides was tested against the yeasts Candida albicans VKM Y-2994 and Cryptococcus neoformans VKM Y-2755, the bacteria Pseudomonas savastanoi pv. savastanoi VKM B-1546, Pectobacterium carotovorum subsp. carotovorum VKM B-1247 and Clavibacter michiganensis subsp. michiganensis VKM Ac-1403, and four Fusarium species: F. culmorum VKM F-2303, F. oxysporum VKM F-137, F. solani VKM F-142 and F. verticillioides VKM F-670. All cultures were obtained from the All-Russian Collection of Microorganisms (VKM). […] The antimicrobial activity of the peptides was measured in immunoassay microtiter plates according to the protocol of Broekaert et al.. […] The plates were incubated at 30 °C for 24 h, and the absorbance of the suspension was measured on an Efos 9305 spectrophotometer (Sapphire, Moscow, Russia) at 594 nm. […] After 38 h of incubation, the absorbance was recorded at 595 nm on a FilterMax F5 Multi-Mode Microplate Reader (Molecular Devices, San Jose, CA, USA). […]\nFor each pathogen, experiments on the peptide antimicrobial activity evaluation were carried out in triplicate per treatment. Mean values, standard deviations (SD), and the significance of differences (p ≤ 0.05) of the means between treatments and controls (t-test for independent variables) were determined using STATISTICA v. […]"}, "[2]": {"test_system": "Pseudomonas savastanoi pv. savastanoi VKM B-1546", "type": "cell-based", "conditions": "300 µM peptide; 30 °C, 24 h, absorbance 594 nm; vs control without peptide; triplicate, mean", "method": "as §1\n(§2) The antimicrobial activity of synthetic peptides was tested against the yeasts Candida albicans VKM Y-2994 and Cryptococcus neoformans VKM Y-2755, the bacteria Pseudomonas savastanoi pv. savastanoi VKM B-1546, Pectobacterium carotovorum subsp. carotovorum VKM B-1247 and Clavibacter michiganensis subsp. michiganensis VKM Ac-1403, and four Fusarium species: F. culmorum VKM F-2303, F. oxysporum VKM F-137, F. solani VKM F-142 and F. verticillioides VKM F-670. All cultures were obtained from the All-Russian Collection of Microorganisms (VKM). The details of the production and storage of cultures of microorganisms used in this study are described at the VKM Home page. Antimicrobial assays were accomplished according to the procedure described earlier. In short, yeasts were grown on the YPD-P medium and the bacteria P. carotovorum and Cl. michiganensis were cultured on a modified YPD-P medium. The Fusarium fungi were grown on potato dextrose agar at 25 °C for 7–8 days, and spores were washed off from the surface of the mycelia with sterile, distilled water. The antimicrobial activity of the peptides was measured in immunoassay microtiter plates according to the protocol of Broekaert et al.. With yeasts and bacteria, each well contained 10 µL of the tested peptide solution (final concentrations of 10–300 µM) in water, 80 µL of the medium and 10 µL of the microbial suspension. The plates were incubated at 30 °C for 24 h, and the absorbance of the suspension was measured on an Efos 9305 spectrophotometer (Sapphire, Moscow, Russia) at 594 nm. For Fusarium species, the wells of a microtiter plate were filled with 90 µL of the fungal spore suspension in half-strength potato dextrose broth at a concentration of 2000–3000 spores in 100 µL and 10 µL of aqueous solutions of peptides at final concentrations of 10–300 µM. After 38 h of incubation, the absorbance was recorded at 595 nm on a FilterMax F5 Multi-Mode Microplate Reader (Molecular Devices, San Jose, CA, USA). Antimicrobial activity is expressed in IC50 values, which show the concentration necessary for 50% inhibition of the pathogen growth; this was determined from a graph showing the activity dependence on peptide concentration.\n(§3) For each pathogen, experiments on the peptide antimicrobial activity evaluation were carried out in triplicate per treatment. Mean values, standard deviations (SD), and the significance of differences (p ≤ 0.05) of the means between treatments and controls (t-test for independent variables) were determined using STATISTICA v. 6.1 software (StatSoft Inc., Tulsa, OK, USA)."}, "[3]": {"test_system": "Cryptococcus neoformans VKM Y-2755", "type": "cell-based", "conditions": "inhibition curves (Figure 4)", "method": "as §1, §2, §3"}, "Cr. neoformans cells": {"test_system": "Cr. neoformans cells", "test": "Propidium iodide staining, fluorescence microscopy", "type": "cell-based, Cryptococcus neoformans", "conditions": "peptide 300 µM, 30 °C, 1 h, 0.03 mM PI 15 min", "method": "(§4) Their ability to disturb the integrity of pathogen membranes was assayed by staining with propidium iodide of C. albicans and Cr. neoformans cells preliminarily incubated with the peptides. The results were visualized by fluorescent microscopy and quantified by flow cytometry (Figure 5, Figure 6 and Figure 7).\n(§5) Staining of yeast cells with propidium iodide in the presence of the γ-core peptides was carried out according to the protocol described earlier. C. albicans or Cr. neoformans cells (24 h culture in YPD-P at a cell concentration of 2 × 10^8/mL) were incubated with the peptide at a concentration of 300 µM at 30 °C for 1 h. After incubation, 1 mL of the cells was stained with 0.03 mM propidium iodide (Sigma, St. Louis, MO, USA). The staining proceeded for 15 min at 30 °C. The fluorescence was recorded on an AXIO Imager A1 fluorescence microscope (ZEISS, Göttingen, Germany) using a Zeiss filter set 56 HE."}, "C. albicans cells": {"test_system": "C. albicans cells", "test": "Propidium iodide staining, fluorescence microscopy", "type": "cell-based, Candida albicans", "conditions": "peptide 300 µM, 30 °C, 1 h, 0.03 mM PI 15 min", "method": "as §4, §5"}},
  "note": "Where a SMILES comes first, the peptide text is derived from it.",
  "data": [
    {"smiles": "C[C@H](NC(=O)[C@H](CCCNC(=N)N)NC(=O)[C@H](CCCCN)NC(=O)[C@H](CS)NC(=O)[C@H](Cc1ccccc1)NC(=O)[C@H](CS)NC(=O)[C@H](CCCCN)NC(=O)[C@H](CCCNC(=N)N)NC(=O)[C@H](C)NC(=O)[C@H](Cc1ccccc1)NC(=O)[C@H](CC(N)=O)NC(=O)[C@H](Cc1c[nH]cn1)NC(=O)[C@@H](NC(=O)[C@H](Cc1c[nH]cn1)NC(=O)[C@H](CS)NC(=O)[C@H](CCC(=O)O)NC(=O)CN)[C@@H](C)O)C(=O)N[C@@H](CS)C(=O)O", "note": "[DEFL1-36_65-82] (H-GECHTHNFARKCFCKRAC-OH; N-terminus and C-terminus assumed)", "values": [
      {"measurement": "Inhibition of Cl. michiganensis at 100 µM", "setting": "[1]; peptide 100 µM", "result": "complete inhibition"},
      {"measurement": "Pathogen inhibition, % (Ps. savastanoi)", "setting": "[2]", "result": "failed to suppress"},
      {"measurement": "Inhibition of Cr. neoformans at 50 µM", "setting": "[3]; peptide 50 µM", "result": "complete inhibition"}
    ]},
    {"smiles": "C[C@H](N)C(=O)N[C@@H](CS)C(=O)N1CCC[C@H]1C(=O)NCC(=O)N[C@@H](C)C(=O)N[C@@H](CS)C(=O)N1CCC[C@H]1C(=O)N[C@@H](C)C(=O)N1CCC[C@H]1C(=O)NCC(=O)NCC(=O)N[C@@H](CO)C(=O)N[C@@H](Cc1ccc(O)cc1)C(=O)N[C@H](C(=O)N[C@@H](CC(N)=O)C(=O)N[C@@H](CCCNC(=N)N)C(=O)NCC(=O)N[C@@H](CS)C(=O)N[C@@H](CCC(N)=O)C(=O)N[C@@H](CCCCN)C(=O)N[C@@H](CCCCN)C(=O)N[C@@H](Cc1ccc(O)cc1)C(=O)N[C@@H](CCC(N)=O)C(=O)N[C@@H](CS)C(=O)N[C@@H](CCCNC(=N)N)C(=O)O)[C@@H](C)O", "note": "[DEFL4-20_86-110] (H-ACPGACPAPGGSYTNRGCQKKYQCR-OH; N-terminus and C-terminus assumed)", "values": [
      {"measurement": "Inhibition of Cl. michiganensis at the highest tested concentration", "setting": "[1]", "result": 91, "unit": "%"},
      {"measurement": "Membrane permeabilization of Cr. neoformans cells (PI staining)", "setting": "Cr. neoformans cells", "result": "induced membrane permeabilization"},
      {"measurement": "Inhibition of Cr. neoformans at the highest tested concentration", "setting": "[3]; highest tested concentration (300 µM)", "result": 95, "unit": "%"},
      {"measurement": "Membrane permeabilization of C. albicans cells (PI staining)", "setting": "C. albicans cells", "result": "induced membrane permeabilization"}
    ]},
    {"smiles": "CC(C)C[C@H](NC(=O)[C@H](CCCNC(=N)N)NC(=O)[C@H](C)NC(=O)[C@H](CS)NC(=O)[C@H](CS)NC(=O)CNC(=O)[C@@H]1CCCN1)C(=O)N[C@@H](CCCNC(=N)N)C(=O)N[C@@H](C)C(=O)N[C@@H](CCC(N)=O)C(=O)N[C@@H](CCCNC(=N)N)C(=O)N[C@@H](C)C(=O)N[C@@H](CS)C(=O)O", "note": "[TkLTP2.25_50-62] (H-PGCCARLRAQRAC-OH; N-terminus and C-terminus assumed)", "values": [
      {"measurement": "Inhibition of Cl. michiganensis at the highest tested concentration", "setting": "[1]", "result": 95, "unit": "%"},
      {"measurement": "Membrane permeabilization of Cr. neoformans cells (PI staining)", "setting": "Cr. neoformans cells", "result": "induced membrane permeabilization"},
      {"measurement": "Membrane permeabilization of C. albicans cells (PI staining)", "setting": "C. albicans cells", "result": "induced membrane permeabilization"}
    ]}
  ]
}
